The values below come from patent publication US9867833B2, “Serine/threonine kinase inhibitors” (GENENTECH, INC., priority 2013, dated 2018).

Structures are written as SMILES.

Sequence of human ERK-2 (Mitogen Activated Kinase 1) (P28482 8-360): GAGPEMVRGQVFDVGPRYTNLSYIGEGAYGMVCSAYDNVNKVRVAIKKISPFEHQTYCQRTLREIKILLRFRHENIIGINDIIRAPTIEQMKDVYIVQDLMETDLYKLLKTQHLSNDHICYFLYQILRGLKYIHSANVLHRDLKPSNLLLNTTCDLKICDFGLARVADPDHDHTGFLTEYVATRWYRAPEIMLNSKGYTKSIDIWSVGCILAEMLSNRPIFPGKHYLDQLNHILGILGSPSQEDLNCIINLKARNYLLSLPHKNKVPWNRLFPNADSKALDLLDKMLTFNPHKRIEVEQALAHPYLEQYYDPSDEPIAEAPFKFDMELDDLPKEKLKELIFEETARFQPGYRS

This experiment has as its target human ERK-2 (Mitogen Activated Kinase 1) (Homo sapiens (Human), UniProt P28482). As to the kind of experiment: ERK-2 Enzymatic Assay. The experiment is classed as biochemical. As to conditions: human ERK-2 enzyme 5 nM, 25 μM ATP, S/T17 peptide substrate; isomer = configuration of CR2R3. The method, then: Compounds were tested in an enzymatic assay using human ERK-2 (Mitogen Activated Kinase 1), recombinantly expressed as an n-terminal 6-His fusion protein in E. coli and corresponding to aa 8-360. […] Test compounds were diluted in DMSO in 3-fold serial dilutions at 100× final concentrations. […] The data collected from each well was fit to a straight line, and the resulting rates were used to calculate percent of control. Percent of control was plotted against compound concentration, and IC50 values were determined using a four-parameter fit.
The IC50 is the point on the concentration scale where inhibition reaches its midpoint. The compound `Cn1nccc1Nc1cc(-c2cc3n4c(nnc4c2)[C@H](c2ccccc2)CN3)ccn1` (single isomer, unassigned) [(R) I-4, N-(1-methyl-1H-pyrazol-5-yl)-4-(3-phenyl-4,5-dihydro-3H-1,2,2a^1,5-tetraazaacenaphthylen-7-yl)pyridin-2-amine] registered an IC50 of 43.1 nM. Compound `Cn1nccc1Nc1cc(-c2cc3n4c(nnc4c2)C(Cc2ccccc2Cl)CCO3)ccn1` (single isomer, unassigned) [(R) I-30, 4-(9-(2-chlorobenzyl)-8,9-dihydro-7H-6-oxa-1,2,2a^1-triazabenzo[cd]azulen-4-yl)-N-(1-methyl-1H-pyrazol-5-yl)pyridin-2-amine] returned an IC50 of 2.55 nM. Compared with the last compound, the IC50 is about 17-fold lower. Compound `CCC(C)CC1COc2cc(-c3ccnc(Nc4ccnn4C)n3)cc3nnc1n23` (single isomer, unassigned) [(R) I-52, N-(1-methyl-1H-pyrazol-5-yl)-4-(3-(2-methylbutyl)-3,4-dihydro-5-oxa-1,2,2a^1-triazaacenaphthylen-7-yl)pyrimidin-2-amine] gave an IC50 of less than 0.02 nM. `Cn1nccc1Nc1cc(-c2cc3n4c(nnc4c2)C(Cc2ccc(Cl)cc2)CO3)ccn1` (single isomer, unassigned) [(R) I-55, 4-(3-(4-chlorobenzyl)-3,4-dihydro-5-oxa-1,2,2a^1-triazaacenaphthylen-7-yl)-N-(1-methyl-1H-pyrazol-5-yl)pyridin-2-amine] returned a concentration for half-maximal inhibition (IC50) of less than 0.02 nM. The compound `Cn1nccc1Nc1cc(-c2cc3n4c(nnc4c2)C(Cc2ccccc2Cl)CCO3)ccn1` (single isomer, unassigned) [(R) I-60, 4-(9-(2-chlorobenzyl)-8,9-dihydro-7H-6-oxa-1,2,2a^1-triazabenzo[cd]azulen-4-yl)-N-(1-methyl-1H-pyrazol-5-yl)pyridin-2-amine] showed a half-maximal inhibitory concentration (IC50) of 2.55 nM. For `CCCC1COc2cc(-c3ccnc(Nc4ccnn4C)n3)cc3nnc1n23` (single isomer, unassigned) [(R) I-101, N-(1-methyl-1H-pyrazol-5-yl)-4-(3-propyl-3,4-dihydro-5-oxa-1,2,2a^1-triazaacenaphthylen-7-yl)pyrimidin-2-amine] the value was 0.038 nM; for `Cn1nccc1Nc1cc(-c2cc3n4c(nnc4c2)[C@@H](c2ccccc2)CN3)ccn1` (single isomer, unassigned) [(S) I-4, N-(1-methyl-1H-pyrazol-5-yl)-4-(3-phenyl-4,5-dihydro-3H-1,2,2a^1,5-tetraazaacenaphthylen-7-yl)pyridin-2-amine], less than 0.02 nM.

`CCC(C)CC1COc2cc(-c3ccnc(Nc4ccnn4C)n3)cc3nnc1n23` (single isomer, unassigned) [(S) I-52, N-(1-methyl-1H-pyrazol-5-yl)-4-(3-(2-methylbutyl)-3,4-dihydro-5-oxa-1,2,2a^1-triazaacenaphthylen-7-yl)pyrimidin-2-amine]: inhibition was half-maximal at 93.4 nM (IC50). For `Cn1nccc1Nc1cc(-c2cc3n4c(nnc4c2)C(Cc2ccc(Cl)cc2)CO3)ccn1` (single isomer, unassigned) [(S) I-55, 4-(3-(4-chlorobenzyl)-3,4-dihydro-5-oxa-1,2,2a^1-triazaacenaphthylen-7-yl)-N-(1-methyl-1H-pyrazol-5-yl)pyridin-2-amine], the midpoint of inhibition, the IC50, lay at 12.5 nM. Take `Cn1nccc1Nc1cc(-c2cc3n4c(nnc4c2)C(Cc2ccccc2Cl)CCO3)ccn1` (single isomer, unassigned) [(S) I-60, 4-(9-(2-chlorobenzyl)-8,9-dihydro-7H-6-oxa-1,2,2a^1-triazabenzo[cd]azulen-4-yl)-N-(1-methyl-1H-pyrazol-5-yl)pyridin-2-amine]: the IC50 is less than 0.02 nM. Compound `CCCC1COc2cc(-c3ccnc(Nc4ccnn4C)n3)cc3nnc1n23` (single isomer, unassigned) [(S) I-101, N-(1-methyl-1H-pyrazol-5-yl)-4-(3-propyl-3,4-dihydro-5-oxa-1,2,2a^1-triazaacenaphthylen-7-yl)pyrimidin-2-amine] displayed an IC50 of 19.5 nM. `Cn1nccc1Nc1nccc(-c2cc3n4c(nnc4c2)[C@H](c2ccccc2)CN3)n1` [(R) I-1, N-(1-methyl-1H-pyrazol-5-yl)-4-(3-phenyl-4,5-dihydro-3H-1,2,2a^1,5-tetraazaacenaphthylen-7-yl)pyrimidin-2-amine]: the IC50 turned out to be 179 nM. Compared with the last compound, the IC50 is about 9.2-fold higher.

On to `Cn1nccc1Nc1nccc(-c2cc3n4c(nnc4c2)[C@H](Cc2ccccc2)CN3)n1` [(R) I-2, (R)-4-(3-benzyl-4,5-dihydro-3H-1,2,2a^1,5-tetraazaacenaphthylen-7-yl)-N-(1-methyl-1H-pyrazol-5-yl)pyrimidin-2-amine], for which the IC50 turned out to be 0.38 nM. The compound `Cn1nccc1Nc1nccc(-c2cc3n4c(nnc4c2)[C@H](Cc2ccc(Cl)cc2)CN3)n1` [(R) I-5, 4-(3-(4-chlorobenzyl)-4,5-dihydro-3H-1,2,2a^1,5-tetraazaacenaphthylen-7-yl)-N-(1-methyl-1H-pyrazol-5-yl)pyrimidin-2-amine] came in with an IC50 of 0.408 nM.

`Cn1nccc1Nc1cc(-c2cc3n4c(nnc4c2)[C@H](Cc2ccccc2)CN3)ccn1` [(R) I-7, 4-(3-benzyl-4,5-dihydro-3H-1,2,2a^1,5-tetraazaacenaphthylen-7-yl)-N-(1-methyl-1H-pyrazol-5-yl)pyridin-2-amine]: 0.707 nM corresponded to half-maximal inhibition (IC50). Take `Cn1nccc1Nc1cc(-c2cc3n4c(ncc4c2)[C@H](Cc2ccc(Cl)cc2)CN3)ccn1` [(R) I-8, 4-(3-(4-chlorobenzyl)-4,5-dihydro-3H-1,2,2a^1,5-tetraazaacenaphthylen-7-yl)-N-(1-methyl-1H-pyrazol-5-yl)pyridin-2-amine]: the IC50 turned out to be 1.55 nM. `CN1C[C@@H](Cc2ccccc2)c2nnc3cc(-c4ccnc(Nc5ccnn5C)n4)cc1n23` [(R) I-9, 4-(3-benzyl-5-methyl-4,5-dihydro-3H-1,2,2a^1,5-tetraazaacenaphthylen-7-yl)-N-(1-methyl-1H-pyrazol-5-yl)pyrimidin-2-amine] gave an IC50 of 5.04 nM. Turning to `CC(C)C[C@@H]1CNc2cc(-c3ccnc(Nc4ccnn4C)n3)cc3nnc1n23` [(R) I-10, 4-(3-isobutyl-4,5-dihydro-3H-1,2,2a^1,5-tetraazaacenaphthylen-7-yl)-N-(1-methyl-1H-pyrazol-5-yl)pyrimidin-2-amine], half-maximal inhibition (IC50) required 2.75 nM. The value for `COc1ccc(C[C@@H]2CNc3cc(-c4ccnc(Nc5ccnn5C)n4)cc4nnc2n34)cc1` [(R) I-11, 4-(3-(4-methoxybenzyl)-4,5-dihydro-3H-1,2,2a^1,5-tetraazaacenaphthylen-7-yl)-N-(1-methyl-1H-pyrazol-5-yl)pyrimidin-2-amine] was 0.514 nM. In turn, `COc1ccc(C[C@@H]2CNc3cc(-c4ccnc(Nc5ccnn5C)n4)cc4nnc2n34)cc1F` [(R) I-12, 4-(3-(3-fluoro-4-methoxybenzyl)-4,5-dihydro-3H-1,2,2a^1,5-tetraazaacenaphthylen-7-yl)-N-(1-methyl-1H-pyrazol-5-yl)pyrimidin-2-amine] returned an IC50 of 0.311 nM. The value for `Cn1nccc1Nc1nccc(-c2cc3n4c(nnc4c2)[C@H](Cc2ccc(Cl)c(F)c2)CN3)n1` [(R) I-14, 4-(3-(4-chloro-3-fluorobenzyl)-4,5-dihydro-3H-1,2,2a^1,5-tetraazaacenaphthylen-7-yl)-N-(1-methyl-1H-pyrazol-5-yl)pyrimidin-2-amine] was 0.0441 nM. As for `Cn1nccc1Nc1nccc(-c2cc3n4c(nnc4c2)[C@@H](Cc2ccccc2)CO3)n1` [(R) I-15, 4-(3-benzyl-3,4-dihydro-5-oxa-1,2,2a^1-triazaacenaphthylen-7-yl)-N-(1-methyl-1H-pyrazol-5-yl)pyrimidin-2-amine], the IC50 amounted to 0.02 nM. The compound `COc1ccc(C[C@@H]2CN(C)c3cc(-c4ccnc(Nc5ccnn5C)c4)cc4nnc2n34)cc1` [(R) I-18, 4-(3-(4-methoxybenzyl)-5-methyl-4,5-dihydro-3H-1,2,2a^1,5-tetraazaacenaphthylen-7-yl)-N-(1-methyl-1H-pyrazol-5-yl)pyridin-2-amine] came in with an IC50 of 0.036 nM. `CC(C)C[C@@H]1CN(C)c2cc(-c3ccnc(Nc4ccnn4C)c3)cc3nnc1n23` [(R) I-20, 4-(3-isobutyl-5-methyl-4,5-dihydro-3H-1,2,2a^1,5-tetraazaacenaphthylen-7-yl)-N-(1-methyl-1H-pyrazol-5-yl)pyridin-2-amine] showed an IC50 of 48.7 nM. This IC50 is about 1400-fold higher than that of the compound before. In turn, `Cn1nccc1Nc1nccc(-c2cc3n4c(nnc4c2)[C@H](Cc2ccc(F)cc2)CN3)n1` [(R) I-21, 4-(3-(4-fluorobenzyl)-4,5-dihydro-3H-1,2,2a^1,5-tetraazaacenaphthylen-7-yl)-N-(1-methyl-1H-pyrazol-5-yl)pyrimidin-2-amine] displayed an IC50 of 0.731 nM. `CN1C(=O)C[C@@H](Cc2ccc(Cl)cc2)c2nnc3cc(-c4ccnc(Nc5ccnn5C)n4)cc1n23` [(R) I-22, 9-(4-chlorobenzyl)-6-methyl-4-(2-((1-methyl-1H-pyrazol-5-yl)amino)pyrimidin-4-yl)-8,9-dihydro-1,2,2a^1,6-tetraazabenzo[cd]azulen-7(6H)-one] registered an IC50 of 88.2 nM.

Regarding `COc1ccc(C[C@@H]2CNc3cc(-c4ccnc(Nc5ccnn5C)n4)cc4nnc2n34)cn1` [(R) I-24, 4-(3-((6-methoxypyridin-3-yl)methyl)-4,5-dihydro-3H-1,2,2a^1,5-tetraazaacenaphthylen-7-yl)-N-(1-methyl-1H-pyrazol-5-yl)pyrimidin-2-amine], 1.85 nM corresponded to half-maximal inhibition (IC50).

Compound `Cn1nccc1Nc1nccc(-c2cc3n4c(nnc4c2)[C@H](COCc2ccccc2)CCO3)n1` [(R) I-29, 4-(9-((benzyloxy)methyl)-8,9-dihydro-7H-6-oxa-1,2,2a^1-triazabenzo[cd]azulen-4-yl)-N-(1-methyl-1H-pyrazol-5-yl)pyrimidin-2-amine] showed an IC50 of 0.109 nM. Against the preceding compound, the IC50 is about 17-fold lower.

The compound `CN1C[C@@H](Cc2ccc(F)cc2)c2nnc3cc(-c4ccnc(Nc5ccnn5C)n4)cc1n23` [(R) I-31, 4-(3-(4-fluorobenzyl)-5-methyl-4,5-dihydro-3H-1,2,2a^1,5-tetraazaacenaphthylen-7-yl)-N-(1-methyl-1H-pyrazol-5-yl)pyrimidin-2-amine] displayed an IC50 of 1.35 nM.
